Test results reported in patent US20260210939A1, “MODIFIED OLFACTORY RECEPTORS” (GIVAUDAN SA, priority 2022, published 2026).
Read-outs that look alike come from different tables or passages of the source.

How the values were obtained:
[1] = molecular target: human class II OR identified in the library screening (Homo sapiens, UniProt Q8NGX5)
Target sequence in this assay (Q8NGX5 whole entry): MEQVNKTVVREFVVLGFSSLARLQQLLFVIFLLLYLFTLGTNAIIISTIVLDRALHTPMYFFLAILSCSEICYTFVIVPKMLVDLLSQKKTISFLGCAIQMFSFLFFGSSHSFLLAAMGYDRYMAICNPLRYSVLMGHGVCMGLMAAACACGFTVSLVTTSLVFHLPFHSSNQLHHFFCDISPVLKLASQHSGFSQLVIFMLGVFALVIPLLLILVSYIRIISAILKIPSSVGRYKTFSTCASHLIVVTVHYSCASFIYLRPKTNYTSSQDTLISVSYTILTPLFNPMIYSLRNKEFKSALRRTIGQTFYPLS
Protocol: (§1) Selected ligand—OR pairs were then tested in a confirmatory test with a dose response analysis.
(§2) For selected receptors, the wild-type sequence was synthesized and cloned into pcDNA3.1 (+). Dose-response analysis with the cognate ligand was then performed for both the wild-type and the modified sequence.

[2] = molecular target: human class II OR identified in the library screening (Homo sapiens, UniProt Q9Y4A9)
Target sequence in this assay (Q9Y4A9 whole entry, the tested form may be a part): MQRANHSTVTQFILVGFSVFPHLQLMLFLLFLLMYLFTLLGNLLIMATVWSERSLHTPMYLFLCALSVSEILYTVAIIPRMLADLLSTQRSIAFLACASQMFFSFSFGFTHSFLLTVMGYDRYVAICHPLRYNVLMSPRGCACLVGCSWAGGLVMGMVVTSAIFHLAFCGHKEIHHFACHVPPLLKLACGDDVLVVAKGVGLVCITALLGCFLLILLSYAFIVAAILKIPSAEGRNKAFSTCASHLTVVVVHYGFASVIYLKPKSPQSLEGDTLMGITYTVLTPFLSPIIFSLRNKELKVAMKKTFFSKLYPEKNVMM
Protocol: as §1, §2

[3] = molecular target: human class II OR identified in the library screening (Homo sapiens, UniProt Q9Y4A9); experiment: Confirmatory dose-response analysis of library-hit OR with cognate ligand, wild-type vs C-terminal domain SEQ ID NO: 221 (Table 17); details: read-out: Potency, EC50 changed C-term; OR10H1, modified C-terminus SEQ ID NO: 221 (SEQ ID NO: 679);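 note: Wild-type receptor sequences expressed from the pcDNA3.1(+) vector and compared with the C-terminally modified receptors in dose-response tests using each receptor's cognate ligand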
Target sequence in this assay (Q9Y4A9 1-297): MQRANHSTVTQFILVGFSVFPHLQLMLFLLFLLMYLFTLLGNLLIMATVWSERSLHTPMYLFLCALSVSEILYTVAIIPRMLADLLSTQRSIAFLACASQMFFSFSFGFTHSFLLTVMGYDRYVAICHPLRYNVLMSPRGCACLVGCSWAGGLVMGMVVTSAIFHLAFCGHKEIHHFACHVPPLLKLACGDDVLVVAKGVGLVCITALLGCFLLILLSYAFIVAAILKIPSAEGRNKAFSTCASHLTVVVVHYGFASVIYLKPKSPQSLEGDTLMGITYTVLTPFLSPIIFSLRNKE
Protocol: as §1, §2

[4] = test system: human class II OR identified in the library screening; experiment: as above; details: for Fold improvement efficacy: maximal induction; for Detection threshold; Fold improvement efficacy: under detection threshold; for EC50: read-out: Potency, EC50 changed C-term
Protocol: as §1, §2

[5] = molecular target: human class II OR identified in the library screening (Homo sapiens, UniProt Q8NGX5); experiment: as above; details: read-out: Potency, EC50 changed C-term; OR10K1, modified C-terminus SEQ ID NO: 221 (SEQ ID NO: 687)
Protocol: as §1, §2

[6] = test system: human class II OR identified in the library screening
Protocol: as §1, §2

[7] = molecular target: human class II OR identified in the library screening (Homo sapiens, UniProt P34982)
Protocol: as §1, §2

[8] = molecular target: human class II OR identified in the library screening (Homo sapiens, UniProt P34982); experiment: Confirmatory dose-response analysis of library-hit OR with cognate ligand, wild-type vs C-terminal domain SEQ ID NO: 221 (Table 17); details: read-out: Potency, EC50 changed C-term; OR1D2, modified C-terminus SEQ ID NO: 221 (SEQ ID NO: 336);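 note: Wild-type receptor sequences expressed from the pcDNA3.1(+) vector and compared with the C-terminally modified receptors in dose-response tests using each receptor's cognate ligand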
Target sequence in this assay (P34982 1-291): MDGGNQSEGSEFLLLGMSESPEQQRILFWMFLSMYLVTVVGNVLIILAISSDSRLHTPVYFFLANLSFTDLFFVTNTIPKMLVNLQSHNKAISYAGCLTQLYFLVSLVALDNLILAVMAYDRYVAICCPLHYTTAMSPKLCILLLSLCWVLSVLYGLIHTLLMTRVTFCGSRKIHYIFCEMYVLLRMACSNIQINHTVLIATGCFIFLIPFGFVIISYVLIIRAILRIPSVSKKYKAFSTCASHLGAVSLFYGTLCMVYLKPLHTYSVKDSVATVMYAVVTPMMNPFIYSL
Protocol: as §1, §2

[9] = molecular target: human class II OR identified in the library screening (Homo sapiens, UniProt O60403)
Protocol: as §1, §2

[10] = molecular target: human class II OR identified in the library screening (Homo sapiens, UniProt Q8NG80)
Target sequence in this assay (Q8NG80 whole entry): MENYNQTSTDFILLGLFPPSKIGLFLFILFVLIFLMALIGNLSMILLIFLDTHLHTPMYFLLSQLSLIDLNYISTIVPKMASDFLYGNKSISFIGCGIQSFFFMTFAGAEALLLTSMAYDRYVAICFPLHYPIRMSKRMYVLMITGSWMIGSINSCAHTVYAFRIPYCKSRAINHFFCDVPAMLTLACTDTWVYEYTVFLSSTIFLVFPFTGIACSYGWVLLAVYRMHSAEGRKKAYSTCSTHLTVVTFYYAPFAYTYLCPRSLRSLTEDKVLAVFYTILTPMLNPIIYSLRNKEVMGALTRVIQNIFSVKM
Protocol: as §1, §2

[11] = molecular target: human class II OR identified in the library screening (Homo sapiens, UniProt Q8NG85)
Target sequence in this assay (Q8NG85 whole entry, the tested form may be a part): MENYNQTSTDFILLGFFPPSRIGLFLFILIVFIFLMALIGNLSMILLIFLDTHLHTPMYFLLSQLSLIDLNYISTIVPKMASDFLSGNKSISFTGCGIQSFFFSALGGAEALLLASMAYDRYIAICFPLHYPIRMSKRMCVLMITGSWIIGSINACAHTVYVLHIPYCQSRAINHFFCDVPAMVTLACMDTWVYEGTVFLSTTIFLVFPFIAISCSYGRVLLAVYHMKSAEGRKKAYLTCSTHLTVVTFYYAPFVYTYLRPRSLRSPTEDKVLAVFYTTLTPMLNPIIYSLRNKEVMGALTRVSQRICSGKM
Protocol: as §1, §2

[12] = molecular target: human class II OR identified in the library screening (Homo sapiens, UniProt Q8NG85); experiment: Confirmatory dose-response analysis of library-hit OR with cognate ligand, wild-type vs C-terminal domain SEQ ID NO: 221 (Table 17); details: read-out: Potency, EC50 changed C-term; OR2L3, modified C-terminus SEQ ID NO: 221 (SEQ ID NO: 412);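 note: Wild-type receptor sequences expressed from the pcDNA3.1(+) vector and compared with the C-terminally modified receptors in dose-response tests using each receptor's cognate ligand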
Protocol: as §1, §2

[13] = molecular target: human class II OR identified in the library screening (Homo sapiens, UniProt Q8NG80); experiment: as above; details: read-out: Potency, EC50 changed C-term; OR2L5, modified C-terminus SEQ ID NO: 221 (SEQ ID NO: 413)
Target sequence in this assay (Q8NG80 1-296): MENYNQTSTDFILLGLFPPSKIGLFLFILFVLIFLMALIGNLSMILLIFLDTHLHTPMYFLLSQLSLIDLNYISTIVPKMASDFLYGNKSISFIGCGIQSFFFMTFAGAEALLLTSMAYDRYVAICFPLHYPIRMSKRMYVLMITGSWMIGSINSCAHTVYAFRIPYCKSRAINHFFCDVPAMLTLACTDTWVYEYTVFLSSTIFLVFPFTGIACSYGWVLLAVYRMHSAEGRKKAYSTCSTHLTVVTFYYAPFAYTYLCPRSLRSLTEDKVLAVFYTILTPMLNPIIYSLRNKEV
Protocol: as §1, §2

[14] = molecular target: T1, human class II OR identified in the library screening (Homo sapiens, UniProt Q8NGP4)
T1 sequence (Q8NGP4 whole entry, the tested form may be a part): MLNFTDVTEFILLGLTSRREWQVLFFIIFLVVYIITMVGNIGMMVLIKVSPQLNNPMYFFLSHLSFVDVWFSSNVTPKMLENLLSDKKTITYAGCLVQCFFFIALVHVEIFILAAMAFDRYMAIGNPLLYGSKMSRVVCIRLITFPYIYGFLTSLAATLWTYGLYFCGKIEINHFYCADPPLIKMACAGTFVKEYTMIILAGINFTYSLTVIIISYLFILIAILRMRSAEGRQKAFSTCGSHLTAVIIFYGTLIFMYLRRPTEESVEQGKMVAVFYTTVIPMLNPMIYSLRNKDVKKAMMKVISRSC
Protocol: as §1, §2

[15] = molecular target: T1, human class II OR identified in the library screening; experiment: Confirmatory dose-response analysis of library-hit OR with cognate ligand, wild-type vs C-terminal domain SEQ ID NO: 221 (Table 17);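 note: Wild-type receptor sequences expressed from the pcDNA3.1(+) vector and compared with the C-terminally modified receptors in dose-response tests using each receptor's cognate ligand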
Protocol: as §1, §2

[16] = molecular target: human class II OR identified in the library screening (Homo sapiens, UniProt Q8NGP4); experiment: as above; details: read-out: Potency, EC50 changed C-term; OR5M3, modified C-terminus SEQ ID NO: 221 (SEQ ID NO: 559)
Protocol: as §1, §2

[17] = molecular target: human class II OR identified in the library screening (Homo sapiens, UniProt Q9GZK7); experiment: as above
Target sequence in this assay (Q9GZK7 whole entry): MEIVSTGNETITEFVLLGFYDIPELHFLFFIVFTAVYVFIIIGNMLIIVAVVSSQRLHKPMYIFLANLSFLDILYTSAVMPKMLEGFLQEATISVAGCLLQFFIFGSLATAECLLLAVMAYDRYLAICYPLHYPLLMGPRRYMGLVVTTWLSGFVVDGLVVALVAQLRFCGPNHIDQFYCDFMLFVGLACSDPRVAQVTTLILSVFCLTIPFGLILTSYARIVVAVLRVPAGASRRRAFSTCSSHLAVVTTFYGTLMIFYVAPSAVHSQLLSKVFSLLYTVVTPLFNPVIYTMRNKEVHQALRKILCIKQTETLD
Protocol: as §1, §2

[18] = molecular target: human class II OR identified in the library screening (Homo sapiens, UniProt Q9GZK7); experiment: as above; details: read-out: Potency, EC50 changed C-term; OR11A1, modified C-terminus SEQ ID NO: 221 (SEQ ID NO: 702)
Protocol: as §1, §2

[19] = molecular target: human class II OR identified in the library screening (Homo sapiens, UniProt Q8NH80)
Protocol: as §1, §2

[20] = molecular target: human class II OR identified in the library screening (Homo sapiens, UniProt Q8NH80); experiment: Confirmatory dose-response analysis of library-hit OR with cognate ligand, wild-type vs C-terminal domain SEQ ID NO: 221 (Table 17); details: read-out: Potency, EC50 changed C-term; OR10D3, modified C-terminus SEQ ID NO: 221 (SEQ ID NO: 671)
Target sequence in this assay (Q8NH80 1-290): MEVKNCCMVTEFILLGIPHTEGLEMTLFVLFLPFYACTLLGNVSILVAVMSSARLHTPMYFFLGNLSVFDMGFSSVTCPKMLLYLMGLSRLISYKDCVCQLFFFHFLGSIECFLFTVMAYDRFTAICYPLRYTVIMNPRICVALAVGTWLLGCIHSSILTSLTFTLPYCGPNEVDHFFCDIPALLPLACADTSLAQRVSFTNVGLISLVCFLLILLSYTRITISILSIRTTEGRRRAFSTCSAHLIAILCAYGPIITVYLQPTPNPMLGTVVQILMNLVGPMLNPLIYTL
Protocol: as §1, §2

[21] = molecular target: human class II OR identified in the library screening (Homo sapiens, UniProt Q8NGG4)
Protocol: as §1, §2

[22] = molecular target: human class II OR identified in the library screening (Homo sapiens, UniProt A4D2G3)
Protocol: as §1, §2

[23] = molecular target: human class II OR identified in the library screening (Homo sapiens, UniProt Q96R48)
Protocol: as §1, §2

[24] = molecular target: human class II OR identified in the library screening (Homo sapiens, UniProt Q8WZ84); experiment: Confirmatory dose-response analysis of library-hit OR with cognate ligand, wild-type vs C-terminal domain SEQ ID NO: 221 (Table 17); details: OR8D1, wild-type sequence
Protocol: as §1, §2

[25] = molecular target: human class II OR identified in the library screening (Homo sapiens, UniProt Q8NGN4); experiment: as above; details: OR10G9, wild-type sequence
Protocol: as §1, §2

[26] = molecular target: human class II OR identified in the library screening (Homo sapiens, UniProt Q8NGC4); experiment: as above; details: read-out: Potency, EC50 changed C-term; OR10G3 (S73G), modified C-terminus SEQ ID NO: 221 (SEQ ID NO: 673)
Protocol: as §1, §2

[27] = OR10K1, modified C-terminus SEQ ID NO: 221 vs wild-type
[28] = OR2L5, modified C-terminus SEQ ID NO: 221 vs wild-type
[29] = OR5M3, modified C-terminus SEQ ID NO: 221 vs wild-type
[30] = OR8H1, modified C-terminus SEQ ID NO: 221 vs wild-type
[31] = OR8D1, modified C-terminus SEQ ID NO: 221 (SEQ ID NO: 631)
[32] = OR8D1, modified C-terminus SEQ ID NO: 221 vs wild-type
[33] = OR10G9, modified C-terminus SEQ ID NO: 221 (SEQ ID NO: 678)
[34] = OR10G9, modified C-terminus SEQ ID NO: 221 vs wild-type

human class II OR identified in the library screening (Homo sapiens, UniProt Q96R48), sequence (Q96R48 whole entry, the tested form may be a part): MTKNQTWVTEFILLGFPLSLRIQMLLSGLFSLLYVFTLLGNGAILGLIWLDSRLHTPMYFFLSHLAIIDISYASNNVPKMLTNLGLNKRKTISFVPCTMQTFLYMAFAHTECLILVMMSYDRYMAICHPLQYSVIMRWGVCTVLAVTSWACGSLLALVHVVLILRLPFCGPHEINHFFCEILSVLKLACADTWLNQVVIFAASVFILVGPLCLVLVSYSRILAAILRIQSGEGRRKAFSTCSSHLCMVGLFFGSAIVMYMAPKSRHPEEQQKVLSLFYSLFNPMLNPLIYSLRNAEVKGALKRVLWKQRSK
human class II OR identified in the library screening (Homo sapiens, UniProt Q8NGC4), sequence (Q8NGC4 1-291): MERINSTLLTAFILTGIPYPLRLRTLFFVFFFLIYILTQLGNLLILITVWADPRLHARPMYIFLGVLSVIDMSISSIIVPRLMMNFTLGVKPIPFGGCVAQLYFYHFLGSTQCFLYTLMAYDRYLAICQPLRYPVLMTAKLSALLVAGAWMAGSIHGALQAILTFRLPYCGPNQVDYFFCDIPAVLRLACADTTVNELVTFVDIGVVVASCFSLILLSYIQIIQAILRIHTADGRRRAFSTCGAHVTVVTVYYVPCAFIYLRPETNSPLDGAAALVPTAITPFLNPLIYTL
human class II OR identified in the library screening (Homo sapiens, UniProt Q8NGG4), sequence (Q8NGG4 whole entry): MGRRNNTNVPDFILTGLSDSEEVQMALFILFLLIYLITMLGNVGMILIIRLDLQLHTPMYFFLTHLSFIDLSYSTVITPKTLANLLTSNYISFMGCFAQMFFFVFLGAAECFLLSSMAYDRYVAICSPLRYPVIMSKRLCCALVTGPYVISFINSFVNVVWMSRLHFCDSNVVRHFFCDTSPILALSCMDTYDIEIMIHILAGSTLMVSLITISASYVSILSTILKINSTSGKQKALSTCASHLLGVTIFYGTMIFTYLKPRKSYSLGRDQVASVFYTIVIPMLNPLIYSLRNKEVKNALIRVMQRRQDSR
human class II OR identified in the library screening (Homo sapiens, UniProt A4D2G3), sequence (A4D2G3 whole entry): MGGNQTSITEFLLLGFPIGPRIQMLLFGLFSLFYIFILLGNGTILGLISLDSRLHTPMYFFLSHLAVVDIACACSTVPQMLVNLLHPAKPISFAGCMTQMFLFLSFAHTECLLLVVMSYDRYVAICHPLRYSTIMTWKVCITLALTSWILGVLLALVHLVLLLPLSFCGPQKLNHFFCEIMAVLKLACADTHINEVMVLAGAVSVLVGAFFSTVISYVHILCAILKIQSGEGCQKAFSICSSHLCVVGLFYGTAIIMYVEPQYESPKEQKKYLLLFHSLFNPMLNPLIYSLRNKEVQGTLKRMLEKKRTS
human class II OR identified in the library screening (Homo sapiens, UniProt Q8NGN4), sequence (Q8NGN4 whole entry): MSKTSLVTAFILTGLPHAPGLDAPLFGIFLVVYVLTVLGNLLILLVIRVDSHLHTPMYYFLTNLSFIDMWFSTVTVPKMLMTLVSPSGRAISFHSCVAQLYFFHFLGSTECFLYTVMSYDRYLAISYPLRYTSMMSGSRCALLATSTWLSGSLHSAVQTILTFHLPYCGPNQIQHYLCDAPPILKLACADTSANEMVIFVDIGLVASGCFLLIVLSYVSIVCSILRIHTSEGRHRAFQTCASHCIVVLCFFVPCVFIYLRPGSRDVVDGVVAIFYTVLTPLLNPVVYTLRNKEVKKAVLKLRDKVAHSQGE

SMILES: CC(C)CCc1ccc2c(c1)OCC(=O)CO2 [7-(3-Methylbutyl)-benzo[b][1,4]dioxepin-3-one]
- Detection threshold; concentration for 2-fold induction, wild-type [1]: 9.4 µM
- Detection threshold; concentration for 2-fold induction, wild-type [2]: no
- EC50 [3]: 7 µM
- Fold improvement efficacy ([4]; OR10H1, modified C-terminus SEQ ID NO: 221 vs wild-type): 10.0 fold
- Potency, Fold-improvement ([4]; OR10K1, EC50 modified C-terminus SEQ ID NO: 221 vs wild-type): 3.1 fold
- Fold improvement efficacy [4, 27]: 12.4 fold
- Detection threshold; Fold improvement efficacy [4, 27]: 63.4 fold
- EC50 [5]: 2.2 µM

SMILES: CC/C(C)=C/CC[C@H](C)CCO [(E,S)-3,7-dimethylnon-6-en-1-ol]
- Detection threshold; concentration for 2-fold induction, changed C-term. [6]: 3.0 µM
- Detection threshold; concentration for 2-fold induction, wild-type [7]: no
- Fold improvement efficacy ([4]; OR1D2, modified C-terminus SEQ ID NO: 221 vs wild-type): 14.9 fold
- EC50 [8]: 34.6 µM

SMILES: CC(C)c1ccc2c(c1)OCC(=O)CO2 [Cascalone]
- Detection threshold; concentration for 2-fold induction, changed C-term. [6]: 108.6 µM
- Detection threshold; concentration for 2-fold induction, wild-type [9]: no
- Fold improvement efficacy ([4]; OR10H2, modified C-terminus SEQ ID NO: 221 vs wild-type): 7.0 fold
- EC50 ([4]; OR10H2, modified C-terminus SEQ ID NO: 221 (SEQ ID NO: 680)): 226 µM

SMILES: CCOC(=O)C1CCCCC1 [Ethyl cyclohexanecarboxylate]
- Detection threshold; concentration for 2-fold induction, wild-type [10]: 40.5 µM
- Detection threshold; concentration for 2-fold induction, wild-type [11]: no
- EC50 [12]: 86.2 µM
- Fold improvement efficacy ([4]; OR2L3, modified C-terminus SEQ ID NO: 221 vs wild-type): 17.1 fold
- Potency, Fold-improvement ([4]; OR2L5, EC50 modified C-terminus SEQ ID NO: 221 vs wild-type): 24.1 fold
- Fold improvement efficacy [4, 28]: 2.6 fold
- Detection threshold; Fold improvement efficacy [4, 28]: 158.8 fold
- EC50 [13]: 4.76 µM

SMILES: CC1=C(O)C(=O)C(C)O1 (centres unmarked) [Furaneol]
- Detection threshold; concentration for 2-fold induction, wild-type [14]: 30.5 µM
- Detection threshold; concentration for 2-fold induction, changed C-term. [6]: 0.3 µM
- EC50 [15]: 65.3 µM
- Potency, Fold-improvement ([4]; OR5M3, EC50 modified C-terminus SEQ ID NO: 221 vs wild-type): 7.5 fold
- Fold improvement efficacy [4, 29]: 16.8 fold
- Detection threshold; Fold improvement efficacy [4, 29]: 100.7 fold
- EC50 [16]: 8.7 µM

SMILES: CC1CCCC2(C)CCCCC12O (centres unmarked) [Geosmin]
- EC50 [17]: 6.8 µM
- EC50 [18]: 2.2 µM

SMILES: CC=Cc1ccc(O)c(OC)c1 [Isoeugenol]
- Detection threshold; concentration for 2-fold induction, changed C-term. [6]: 1.4 µM
- Detection threshold; concentration for 2-fold induction, wild-type [19]: no
- EC50 [20]: 8.4 µM
- Fold improvement efficacy ([4]; OR10D3, modified C-terminus SEQ ID NO: 221 vs wild-type): 6.1 fold

SMILES: N#CC(=C1CCCCC1)c1ccccc1 [Peonile]
- Detection threshold; concentration for 2-fold induction, wild-type [21]: 6.9 µM
- Detection threshold; concentration for 2-fold induction, changed C-term. [6]: 0.4 µM
- Potency, Fold-improvement ([4]; OR8H1, EC50 modified C-terminus SEQ ID NO: 221 vs wild-type): 2.95 fold
- Fold improvement efficacy [4, 30]: 4.2 fold
- Detection threshold; Fold improvement efficacy [4, 30]: 15.6 fold
- EC50 ([4]; OR8H1, modified C-terminus SEQ ID NO: 221 (SEQ ID NO: 637)): 5.8 µM

SMILES: CC(C)=CCC(C)C1CC1(C)CO (centres unmarked) [Rosyfolia]
- Detection threshold; concentration for 2-fold induction, wild-type [22]: no
- Detection threshold; concentration for 2-fold induction, wild-type [23]: no
- Fold improvement efficacy ([4]; OR2A5, modified C-terminus SEQ ID NO: 221 vs wild-type): 3.0 fold
- Fold improvement efficacy ([4]; OR2A25, modified C-terminus SEQ ID NO: 221 vs wild-type): 7.6 fold
- EC50 ([4]; OR2A5, modified C-terminus SEQ ID NO: 221 (SEQ ID NO: 374)): 18 µM
- EC50 ([4]; OR2A25, modified C-terminus SEQ ID NO: 221 (SEQ ID NO: 370)): 11 µM

SMILES: CC1=C(O)C(=O)OC1C (centres unmarked) [Sotolone]
- Potency, Fold-improvement ([4]; OR8D1, EC50 modified C-terminus SEQ ID NO: 221 vs wild-type): 2.5 fold
- Detection threshold; concentration for 2-fold induction, changed C-term. [4, 31]: 0.48 µM
- Fold improvement efficacy [4, 32]: 2.1 fold
- Detection threshold; Fold improvement efficacy [4, 32]: 5.2 fold
- EC50 [4, 31]: 7.5 µM
- Detection threshold; concentration for 2-fold induction, wild-type [24]: 2.5 µM

SMILES: CCOc1cc(C)ccc1O [Ultravanil]
- Potency, Fold-improvement ([4]; OR10G9, EC50 modified C-terminus SEQ ID NO: 221 vs wild-type): 4.8 fold
- Detection threshold; concentration for 2-fold induction, changed C-term. [4, 33]: 1.7 µM
- Fold improvement efficacy [4, 34]: 3.4 fold
- Detection threshold; Fold improvement efficacy [4, 34]: 8.62 fold
- EC50 [4, 33]: 19 µM
- Detection threshold; concentration for 2-fold induction, wild-type [25]: 14.6 µM

SMILES: COc1cc(C=O)ccc1O [Vanillin]
- EC50 [26]: 15.3 µM
